From US8309788B2, “Protease inhibitors in absorbent articles” (The Procter and Gamble Company, priority 1999, dated 2012)
Where a SMILES comes first, the peptide text is derived from it. [ ]: non-standard residue; d: D form. The star is where a group is joined. Sta = CC(C)C[C@H](N)[C@@H](O)CC(=O)O; Isovaleryl = CC(C)CC(=O)*

B1: Soybean trypsin inhibitor: plant-derived trypsin inhibitor; serine protease inhibitor (protein, UniProt P01070 25-205, looked up)
Trypsin inhibitor A: DFVLDNEGNPLENGGTYYILSDITAFGGIRAAPTGNERCPLTVVQSRNELDKGIGTIISSPYRIRFIAEGHPLSLKFDSFAVIMLCVGIPTEWSVVEDLPEGPAVKIGENKDAMDGWFRLERVSDDEFNNYKLVFCPQQAEDDKCGDIGISIDHDDGTRRLVVSKNKPLVVQFQKLDKESL

What was measured:
[1] = test system: IL-1α production by cultured keratinocytes in the presence of feces; assay: In Vitro Skin Test for Inhibition of IL-1α Production; type: cell-based, human
Excerpt: In an in vitro method to determine the efficacy of protease inhibitors in preventing the proinflammatory response of the skin to feces and fecal enzymes, human keratinocytes are obtained from epidermal tissue and cultured in serum free medium in plastic culture vessels containing a nylon mesh surface for a period of time until they are confluent. The mesh surface is then raised to the liquid air interface in order to promote differentiation and formation of multilayered organized layers analogous to those found in vivo, including a well defined stratum corneum barrier layer. Any cell culture system that promotes the growth and differentiation of keratinocytes, as described, may be employed. A commercially available cell culture system suitable for use in the invention is Epiderm (MatTek Corporation, Ashland, Mass.). Infant feces are collected in a manner to keep them free of urine contamination and diluted with phosphate-buffered saline (PBS) (pH 7.2-7.4.) The mixture is then mixed thoroughly to obtain a homogeneous suspension by homogenization or sonication. To assay for IL-1α production due to fecal enzyme activity, an aliquot of the homogenate is diluted with PBS and added to the surface of a control culture in a culture vessel. To assay for inhibition of IL-1α production due to protease activity, a predetermined quantity of a putative protease inhibitor is added to an otherwise identical diluted aliquot of the homogenate prior to adding it to the surface of a test culture. The cultures are allowed to incubate in a controlled atmosphere. At selected times, the control cultures and inhibitor-treated test cultures, and the underlying culture media are harvested. The culture media are assayed for the presence of IL-1α by known methods. For example, a suitable assay for IL-1α is an enzyme-linked immunoabsorbent method commercially available as Quantikine from R&D Systems, Minneapolis, Minn. The percent reduction in IL-1α production due to the presence of the protease inhibitor is calculated as follows: [formula] […]

[2] = test system: purified chymotrypsin; assay: Purified Protease Method: purified chymotrypsin; type: biochemical; settings: pH 7.6, 25° C., read-out: IC50 Values, Purified Proteases, Chymotrypsin
Experimental: Standard in vitro assays for enzyme activity and inhibition of enzyme activity are well known. The reagents used to conduct these tests are generally commercially available. In general, a simple system comprises an enzyme-specific substrate which, when hydrolyzed by the enzyme, produces a colored product. The activity of the enzyme is measured spectrophotometrically as the degree of development of the colored product (i.e. the rate of color change) over a predetermined time period.
For the Purified Protease assay and the Fecal Protease assays described below, the IC50 for each inhibitor tested is calculated according to the following equation: IC50=[I]/[(v/vi)−1] where: [I] is the inhibitor concentration tested, v is the rate of substrate cleavage in the absence of inhibitor and vi is the rate of substrate cleavage in the presence of inhibitor.
The following Purified Protease and Fecal Protease Methods are utilized to determine the inhibitory activity of putative protease inhibitors against a) purified proteases known to exist in feces; and b) the protease activity of feces itself; respectively. […] In the Methods, v and vi are measured as the change in absorbance (optical density, OD) at a given wavelength/time (e.g., minutes).
To test the efficacy of protease inhibitors against purified chymotrypsin, 0.05 mL of a putative inhibitor and 0.125 mL of 16 nM chymotrypsin (e.g., Sigma, St. Louis, Mo., catalogue no. C8946) in chymotrypsin buffer (50 mM TRIS, 10 mM CaCl2, pH 7.6) are added to a microcuvette. […] To this mixture, 0.025 mL of substrate (0.6 mM N-Succ-Ala-Ala-Pro-Phe-p-nitroanilide, e.g., Sigma cat. no. S7388) in chymotrypsin buffer is added to the cuvette, mixed, and the absorbance at 405 nm measured over 10 minutes at 25° C. The rate of substrate cleavage in the presence of inhibitor (vi) is the slope of a plot relating the absorbance at 405 nm versus time. […] The rate of substrate cleavage in the absence of inhibitor (v) is the slope of a plot relating the absorbance at 405 nm versus time. […]

| Molecule | IC50 [2] [nM] | also measured |
| --- | --- | --- |
| N=C(N)c1ccc(OCCCCCCOc2ccc(C(=N)N)cc2)cc1 [Hexamidine diisethionate, hexamidine diisethionate] | – | reduction of IL-1α production from skin cultures treated with feces ([1]; inhibitor concentration 100 μM): 5%; reduction of IL-1α production from skin cultures treated with feces ([1]; inhibitor concentration 1000 μM): 51-88% |
| Aprotinin | 1000 | – |
| CC(C)CC(=O)N[C@H](C(=O)N[C@H](C(=O)N[C@@H](CC(C)C)[C@@H](O)CC(=O)N[C@@H](C)C(=O)N[C@@H](CC(C)C)[C@@H](O)CC(=O)O)C(C)C)C(C)C [Pepstatin A] (Isovaleryl-VV[Sta]A[Sta]-OH) | 4900 | – |
| CC(C)C[C@H](NC(=O)[C@@H](NC(=O)N[C@@H](Cc1ccccc1)C(=O)O)[C@@H]1CCN=C(N)N1)C(=O)N[C@H](C=O)Cc1ccccc1 [Chymostatin] | < 120 | – |
| B1 | – | reduction of IL-1α production from skin cultures treated with feces ([1]; inhibitor concentration 10 μM): 56-75% |
